Measurements published in patent US20100092560A1, “REDUCED COENZYME Q10-CONTAINING PARTICULATE COMPOSITION AND METHOD FOR PRODUCING THE SAME” (KANEKA CORPORATION, priority 2007, published 2010).

Test: Preservation test: residual ratio of reduced coenzyme Q10 (oxidative stability, HPLC)
Type: physicochemical
Conditions: powder preserved for 30 days at 40° C. under shading conditions
Procedure: The purity of reduced coenzyme Q10, the weight ratio (%) of oxidized coenzyme Q10 and reduced coenzyme Q10 and the like were determined by the following HPLC analysis. The HPLC analysis conditions are described below.
column: SYMMETRY C18 (manufactured by Waters) 250 mm (length) 4.6 mm (inner diameter), mobile phase; C2H5OH/CH3OH=4/3(v/v), detection wavelength; 210 nm, flow rate; 1.0 ml/min, retention time of reduced coenzyme Q10; 9.1 min, retention time of oxidized coenzyme Q10; 13.3 min.

For `COc1c(O)c(C)c(C/C=C(\C)CC/C=C(\C)CC/C=C(\C)CC/C=C(\C)CC/C=C(\C)CC/C=C(\C)CC/C=C(\C)CC/C=C(\C)CC/C=C(\C)CCC=C(C)C)c(O)c1OC` [reduced coenzyme Q10 powder, reduced coenzyme Q10], which “residual ratio of reduced coenzyme Q10” value is on record?
Its value is 28%.
